Like-named read-outs stand apart in the source and are kept apart here.
Experiments:
[1] = tested on: influenza A virus (A/Puerto Rico/8/34); experiment: microbe, parasite or virus in culture; conditions: MDCK, read-out: IC50, Inhibition of A/Puerto Rico/8/34 Infection
[2] = tested on: influenza A virus (A/Puerto Rico/8/34); conditions: for IC50: read-out: IC50, Inhibition of A/Puerto Rico/8/34 Infection, MDCK cells, 100 TCID50, MTT-based, 48 h post-infection
[3] = in vitro; conditions: dog
[4] = Cytotoxicity MTT assay; conditions: dog, MDCK cells
[5] = tested on: clathrin-mediated endocytosis in A549 cells; experiment: Fluorescence confocal assay, Tf-568 uptake; type: cell-based, human; conditions: 20 μM, 3 h pre-treatment
[6] = tested on: H5N1 pseudovirus A/Xinjiang/1/2006; experiment: organism not typed; type: cell-based, H5N1 IAV
[7] = tested on: A/WSN/33 (H1N1); experiment: microbe, parasite or virus in culture; type: cell-based, Influenza A virus (H1N1); conditions: Influenza A virus, MDCK
[8] = tested on: A/FM-1/1/47 (H1N1); experiment: microbe, parasite or virus in culture; type: cell-based; conditions: Influenza A virus, H1N1, MDCK
[9] = tested on: IAV proteins NP and PB2, NP mRNA; type: cell-based; conditions: MDCK cells
[10] = tested on: clathrin-associated uptake of transferrin in A549 cells; experiment: Transferrin absorption test; conditions: pretreated 3 h, transferrin 15 µg/mL 30 min, Western blotting
[11] = tested on: IAV-induced Ca2+ influx in A549 cells; experiment: Intracellular Ca2+ level during IAV infection (BBcellProbeTMF3); type: cell-based, human; conditions: A/WSN/33
[12] = tested on: H5N1 pseudovirus A/Anhui/1/2005; experiment: organism not typed; type: cell-based, H5N1 IAV
[13] = tested on: A/Aichi/2/68 (H3N2); experiment: microbe, parasite or virus in culture; type: cell-based; conditions: Influenza A virus, H3N2, MDCK
[14] = tested on: influenza viral polymerase activity; type: cell-based, Influenza A virus
[15] = tested on: H5N1 pseudovirus A/Qinghai/59/2005; experiment: organism not typed; type: cell-based, H5N1 IAV
[16] = tested on: vesicular stomatitis virus G (VSV-G) PsV; type: cell-based
[17] = tested on: caveolin-1; type: cell-based, human
[18] = tested on: caveolin-mediated endocytosis in A549 cells; type: cell-based, human
[19] = tested on: H5N1 pseudovirus A/Hong Kong/156/1997; experiment: organism not typed; type: cell-based, H5N1 IAV
[20] = tested on: IAV replication in A549 cells; type: cell-based; conditions: viral protein and gene

## COCCOC(=O)C1=C(C)NC(C)=C(C(=O)OC/C=C/c2ccccc2)C1c1cccc([N+](=O)[O-])c1 (centres unmarked) [Cilnidipine]
[1]; 48 h
  IC50: 14.3 ± 2.66 µM
[2]; A/Puerto Rico/8/34
  SI (CC50/ IC50): >14.02
[3]
  CC50 at 48 h: > 200 µM

## COCCOC(=O)C1=C(C)NC(C)=C(C(=O)OC(C)C)C1c1cccc([N+](=O)[O-])c1 (centres unmarked) [Nimodipine]
[2]
  SI (CC50/ IC50): >15.58
  IC50: 12.8 ± 1.72 µM
[4]
  CC50 at 48 h: > 200 µM

## COC(=O)C1=C(C)NC(C)=C(C(=O)OCC(C)C)C1c1ccccc1[N+](=O)[O-] (centres unmarked) [Nisoldipine]
[5]
  transferrin (Tf-568) uptake: decreased
[6]
  IC50: 3.87 ± 0.51 µM
[7]
  IC50: 4.47 ± 0.25 µM
[8]
  IC50: 6.96 ± 0.78 µM
[9]; Western blotting, dose-dependent
  expression of IAV proteins NP and PB2: significantly inhibited
[9]; qRT-PCR
  NP mRNA expression: decreased
[10]
  internalization of transferrin: markedly reduced
[2]
  IC50: 4.74 ± 0.76 µM
[4]
  CC50 at 48 h: > 200 µM
[11]
  IAV-induced Ca2+ influx: inhibited
[12]
  IC50: 2.59 ± 0.46 µM
[13]
  IC50: 5.68 ± 0.61 µM
[14]
  influenza viral polymerase activity: did not affect
[15]
  IC50: 5.84 ± 0.64 µM
[16]
  inhibition of VSV-G PsV infection: much less efficiency
[17]
  expression of caveolin-1: reduce the expression of caveolin-1
[18]
  CTB-FITC endocytosis (immunostaining): less immunostaining
[19]
  IC50: 4.47 ± 0.47 µM
[20]
  IAV replication in A549 cells: interfered with IAV replication

## CCOC(=O)C1=C(C)NC(C)=C(C(=O)OC)C1c1cccc([N+](=O)[O-])c1 (centres unmarked) [Nitrendipine]
[2]
  SI (CC50/ IC50): 23.56
  IC50: 7.26 ± 1.89 µM
[4]
  CC50 at 48 h: 171 ± 14.1 µM

## CC(=O)N[C@H]1[C@H]([C@H](O)[C@H](O)CO)OC(C(=O)O)=C[C@@H]1N=C(N)N [Zanamivir]
[1]
  IC50: 0.00126 ± 0.0003 µM
[2]
  SI (CC50/ IC50): >158.73
[4]
  CC50 at 48 h: > 0.2 µM

## methyl-β-cyclodextrin [MβCD]
[18]
  CTB-FITC endocytosis (immunostaining): less immunostaining
